{"source": "patent US12403128B2", "about": "“Compositions and methods for blocking sodium channels” (University of Virginia Patent Foundation, priority 2017, dated 2025)", "key": {"Nav1.6": {"biological_target": "Nav1.6 (Homo sapiens, UniProt Q9UQD0)", "sequence (Q9UQD0 whole entry)": "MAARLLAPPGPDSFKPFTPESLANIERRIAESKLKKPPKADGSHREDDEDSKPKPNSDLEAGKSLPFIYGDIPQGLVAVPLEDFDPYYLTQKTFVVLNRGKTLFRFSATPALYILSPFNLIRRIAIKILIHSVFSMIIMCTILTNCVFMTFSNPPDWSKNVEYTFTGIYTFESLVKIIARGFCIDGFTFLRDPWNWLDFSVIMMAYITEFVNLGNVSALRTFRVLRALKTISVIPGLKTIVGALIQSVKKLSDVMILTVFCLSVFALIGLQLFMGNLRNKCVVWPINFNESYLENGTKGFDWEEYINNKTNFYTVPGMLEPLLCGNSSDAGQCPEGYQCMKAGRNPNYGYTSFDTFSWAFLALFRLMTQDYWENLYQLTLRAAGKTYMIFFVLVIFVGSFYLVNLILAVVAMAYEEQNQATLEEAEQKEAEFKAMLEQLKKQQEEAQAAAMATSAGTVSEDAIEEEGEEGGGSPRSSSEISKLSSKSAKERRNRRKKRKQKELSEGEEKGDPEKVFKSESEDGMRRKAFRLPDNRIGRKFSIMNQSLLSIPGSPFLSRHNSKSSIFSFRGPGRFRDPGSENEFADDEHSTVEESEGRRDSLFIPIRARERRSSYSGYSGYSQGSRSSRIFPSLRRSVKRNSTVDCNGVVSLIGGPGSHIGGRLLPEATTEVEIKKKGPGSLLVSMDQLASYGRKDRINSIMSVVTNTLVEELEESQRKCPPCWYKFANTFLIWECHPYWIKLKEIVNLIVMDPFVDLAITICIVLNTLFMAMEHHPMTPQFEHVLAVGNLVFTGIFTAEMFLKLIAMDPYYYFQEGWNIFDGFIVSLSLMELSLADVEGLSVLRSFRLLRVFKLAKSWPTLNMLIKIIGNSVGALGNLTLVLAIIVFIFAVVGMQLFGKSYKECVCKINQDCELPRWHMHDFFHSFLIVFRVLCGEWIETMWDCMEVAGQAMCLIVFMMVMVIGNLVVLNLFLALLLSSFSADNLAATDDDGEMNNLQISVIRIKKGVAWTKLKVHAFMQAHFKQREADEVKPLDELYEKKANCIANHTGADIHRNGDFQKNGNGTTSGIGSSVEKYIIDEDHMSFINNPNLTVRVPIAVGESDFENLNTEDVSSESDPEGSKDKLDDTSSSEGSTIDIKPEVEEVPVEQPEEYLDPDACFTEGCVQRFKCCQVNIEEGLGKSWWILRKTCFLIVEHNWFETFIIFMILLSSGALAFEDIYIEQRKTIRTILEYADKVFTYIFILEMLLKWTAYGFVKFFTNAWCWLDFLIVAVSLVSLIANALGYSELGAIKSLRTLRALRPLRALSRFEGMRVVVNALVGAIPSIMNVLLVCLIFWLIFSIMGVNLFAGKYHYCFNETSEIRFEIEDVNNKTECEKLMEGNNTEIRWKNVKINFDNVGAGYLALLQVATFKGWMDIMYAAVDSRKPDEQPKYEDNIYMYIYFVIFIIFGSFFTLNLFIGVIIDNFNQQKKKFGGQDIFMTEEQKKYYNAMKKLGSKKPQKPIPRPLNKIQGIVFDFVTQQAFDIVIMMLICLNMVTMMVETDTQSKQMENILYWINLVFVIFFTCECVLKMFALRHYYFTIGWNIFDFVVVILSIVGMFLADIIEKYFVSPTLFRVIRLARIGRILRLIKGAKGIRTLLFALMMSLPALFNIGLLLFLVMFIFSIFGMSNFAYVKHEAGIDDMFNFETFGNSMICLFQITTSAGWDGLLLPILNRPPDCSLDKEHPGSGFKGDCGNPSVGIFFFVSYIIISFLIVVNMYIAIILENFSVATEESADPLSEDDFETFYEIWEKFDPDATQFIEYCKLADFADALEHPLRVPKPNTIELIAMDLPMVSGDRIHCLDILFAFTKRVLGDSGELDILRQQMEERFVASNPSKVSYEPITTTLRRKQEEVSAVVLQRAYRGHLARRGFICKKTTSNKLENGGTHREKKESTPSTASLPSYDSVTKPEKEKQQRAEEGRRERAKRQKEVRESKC", "test": "% block of Nav1.6 at 100 μM and IC50 (NaV1.6)", "format": "cell-based", "summary_of_the_method": "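Nav1.6 block recorded as percent inhibition at 100 μM compound; IC50 also reported.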"}, "NaV1.6 sodium channels": {"biological_target": "NaV1.6 sodium channels (Homo sapiens, UniProt Q9UQD0)", "sequence (Q9UQD0 whole entry)": "as above", "test": "State-dependent inhibition: steady state inactivation, use-dependent block", "format": "cell-based", "description": "Evaluation of Compounds as State-Dependent Inhibitors\nUse dependent block is an important characteristic for AED activity since it allows increased inhibition of sodium channels during increased neuronal activity as is observed during seizures."}, "[1]": {"tested_on": "maximal electroshock (MES) seizures", "test": "MES (maximal electroshock) test, mice", "format": "in vivo", "conditions": "for MES N/F (animals active over number tested): 100 mg/kg", "description": "Evaluation of Compounds in MES Models of Seizures. […] These seizures are highly reproducible and are electrophysiologically consistent with human seizures. […] Abolition of the hindleg tonic extensor component of the seizure was used as the endpoint."}, "[2]": {"tested_on": "maximal electroshock (MES) seizures", "test": "MES (maximal electroshock) test, rats", "format": "in vivo", "conditions": "for MES N/F (animals active over number tested): 30 mg/kg", "description": "Evaluation of Compounds in MES Models of Seizures. The MES is a model for generalized tonic-clonic seizures and provides an indication of a compound's ability to prevent seizure spread when all neuronal circuits in the brain are maximally active. These seizures are highly reproducible and are electrophysiologically consistent with human seizures. […] Abolition of the hindleg tonic extensor component of the seizure was used as the endpoint."}, "[3]": {"tested_on": "Metrazol-induced clonic seizures", "test": "scM (subcutaneous Metrazol) test, mice", "format": "in vivo", "description": "(§1) Evaluation of Compounds in scM Models of Seizures. Subcutaneous injection of the convulsant Metrazol produces clonic seizures in laboratory animals. […] Animals may be pretreated with various doses of the test compound given by ip injection. At a previously determined TPE (time to peak) of the test compound, the dose of Metrazol which will induce convulsions in 97% of animals (CD97:85 mg/kg mice) may be injected into a loose fold of skin in the midline of the neck. The animals may be placed in isolation cages to minimize stress and observed for the next 30 min for the presence or absence of a seizure. An episode of clonic spasms, approximately 3-5 seconds, of the fore and/or hindlimbs, jaws, or vibrissae may be taken as the endpoint. […] The scM test represents acute animal seizures."}, "[4]": {"tested_on": "Metrazol-induced clonic seizures", "test": "scM (subcutaneous Metrazol) test, rats", "format": "in vivo", "description": "as §1"}, "[5]": {"tested_on": "6 Hz psychomotor seizures", "test": "6 Hz psychomotor seizure test, mice", "format": "in vivo", "conditions": "for 6 Hz N/F (animals active over number tested): 100 mg/kg; for ED50: Mus musculus", "description": "Evaluation of Compounds in 6 Hz Pyschomotor Seizure Test\nCompounds were tested using a 6 Hz psychomotor seizure test. […] For example, both the MES and scM models are insensitive to levetiracetam, a compound considered potentially useful in the management of refractory seizures. […] Thus, the 6 Hz test can serve as a therapy resistant screening paradigm of acute seizure activity."}, "[6]": {"tested_on": "corneal kindled mice seizures", "test": "Corneal kindled mice model", "format": "in vivo", "conditions": "for Avg. Score / N/F (animals active over number tested): TPE 0.5 hours", "description": "Evaluation of Compounds in Corneal Kindled Mice Model.\nCorneal kindled mice are kindled electrically via 3 second stimulation at 8 mA, 60 Hz through corneal electrodes to produce 10 consecutive stage […] seizures according to the Racine scale. Animals are defined as kindled once they progress to a reproducible stage 5 seizure. 72 hours after the mice have been kindled the test substance is administered and, according to a previously determined TPE (time to peak), the animals are electrically stimulated. The animals are considered protected when displaying a stage 3, or lower, seizure."}, "[7]": {"test": "Behavioral toxicity (TOX, TD50), rats", "format": "in vivo", "conditions": "rat, in vivo, IP, Table 15, read-out: TOX TD50"}, "rats": {"tested_on": "rats", "test": "Behavioral toxicity (TOX, TD50), rats", "format": "in vivo", "conditions": "IP, 30 mg/kg"}, "mice": {"tested_on": "mice", "conditions": "mouse, in vivo, ip, 100 mg/kg"}, "in vivo": {"test": "in vivo", "conditions": "mouse, ip"}}, "note": "Read-outs that look alike come from different tables or passages of the source."}
{"compound": "Clc1ccc2nc(-c3ccccc3)[nH]c2c1", "note": "[MV1066, 6-chloro-2-phenyl-1H-1,3-benzodiazole]", "values": [{"measurement": "inhibition at 100 µM", "setting": "Nav1.6; 100 μM compound", "value": 95, "unit": "%"}, {"measurement": "IC50", "setting": "Nav1.6; NaV1.6, Table 2, MV1060-MV1091, unit inferred, read-out: IC50", "value": 34.6, "unit": "µM"}, {"measurement": "effect on current amplitude and activation gating", "setting": "NaV1.6 sodium channels; 100 μM, 1 second pre-pulse", "value": "inhibits macroscopic current amplitude but has no effect on activation gating"}, {"measurement": "use-dependent block", "setting": "NaV1.6 sodium channels; 20 Hz", "value": "profound use-dependent block"}, {"measurement": "affinity by holding potential (dose response)", "setting": "NaV1.6 sodium channels; cells held at −100 mV or −60 mV, stepped to +10 mV", "value": "greater affinity for cells held at −60 mV"}, {"measurement": "ED50", "setting": "[1]; Mouse, time 0.5 hrs, read-out: ED50 from MES test", "value": 44.2, "unit": "mg/kg"}, {"measurement": "ED50", "setting": "[1]; Mus musculus, mice, IP, Table 14, read-out: MES ED50", "value": 44.2, "unit": "mg/kg"}, {"measurement": "MES N/F (animals active over number tested)", "setting": "[1]; mice, IP, 0.25 h", "value": "4/4"}, {"measurement": "MES N/F (animals active over number tested)", "setting": "[1]; mice, IP, 0.5 h", "value": "4/4"}, {"measurement": "MES N/F (animals active over number tested)", "setting": "[1]; mice, IP, 1.0 h", "value": "4/4"}, {"measurement": "MES N/F (animals active over number tested)", "setting": "[1]; mice, IP, 2.0 h", "value": "4/4"}, {"measurement": "MES N/F (animals active over number tested)", "setting": "[1]; mice, IP, 4.0 h", "value": "4/4"}, {"measurement": "ED50", "setting": "[2]; Rat, time 0.5 hrs, read-out: ED50 from MES test", "value": 25.1, "unit": "mg/kg"}, {"measurement": "ED50", "setting": "[2]; Rattus norvegicus, rats, IP, Table 15, read-out: MES ED50", "value": 25.1, "unit": "mg/kg"}, {"measurement": "MES N/F (animals active over number tested)", "setting": "[2]; rats, IP, 0.25 h", "value": "2/4"}, {"measurement": "MES N/F (animals active over number tested)", "setting": "[2]; rats, IP, 0.5 h", "value": "4/4"}, {"measurement": "MES N/F (animals active over number tested)", "setting": "[2]; rats, IP, 1.0 h", "value": "4/4"}, {"measurement": "MES N/F (animals active over number tested)", "setting": "[2]; rats, IP, 2.0 h", "value": "3/4"}, {"measurement": "MES N/F (animals active over number tested)", "setting": "[2]; rats, IP, 4.0 h", "value": "4/4"}, {"measurement": "ED50", "setting": "[3]; Mus musculus, mice, IP, Table 14, read-out: sCM ED50", "value": 180, "unit": "mg/kg"}, {"measurement": "ED50", "setting": "[3]; sc, Mouse, time 0.5 hrs, read-out: ED50 from scM test", "value": 181, "unit": "mg/kg"}, {"measurement": "ED50", "setting": "[4]; Rattus norvegicus, rats, IP, Table 15, read-out: sCM ED50", "value": 96.9, "unit": "mg/kg"}, {"measurement": "ED50", "setting": "[4]; sc, Rat, time 0.5 hrs, read-out: ED50 from scM test", "value": 97, "unit": "mg/kg"}, {"measurement": "6 Hz N/F (animals active over number tested)", "setting": "[5]; IP, 32 mA, 0.25 h", "value": "4/4"}, {"measurement": "6 Hz N/F (animals active over number tested)", "setting": "[5]; IP, 32 mA, 0.5 h", "value": "4/4"}, {"measurement": "6 Hz N/F (animals active over number tested)", "setting": "[5]; IP, 32 mA, 1.0 h", "value": "3/4"}, {"measurement": "6 Hz N/F (animals active over number tested)", "setting": "[5]; IP, 32 mA, 2.0 h", "value": "2/4"}, {"measurement": "6 Hz N/F (animals active over number tested)", "setting": "[5]; IP, 32 mA, 4.0 h", "value": "0/4"}, {"measurement": "6 Hz N/F (animals active over number tested)", "setting": "[5]; IP, 44 mA, 0.25 h", "value": "2/4"}, {"measurement": "6 Hz N/F (animals active over number tested)", "setting": "[5]; IP, 44 mA, 0.5 h", "value": "2/4"}, {"measurement": "6 Hz N/F (animals active over number tested)", "setting": "[5]; IP, 44 mA, 1.0 h", "value": "2/4"}, {"measurement": "6 Hz N/F (animals active over number tested)", "setting": "[5]; IP, 44 mA, 2.0 h", "value": "0/4"}, {"measurement": "6 Hz N/F (animals active over number tested)", "setting": "[5]; IP, 44 mA, 4.0 h", "value": "0/4"}, {"measurement": "ED50", "setting": "[5]; 32 mA, read-out: ED50 (6 Hz test)", "value": 67.1, "unit": "mg/kg"}, {"measurement": "ED50", "setting": "[5]; IP, 32 mA, Table 14, read-out: 6 Hz (32 mA) ED50", "value": 67.1, "unit": "mg/kg"}, {"measurement": "ED50", "setting": "[5]; IP, (14 mA) [sic], Table 14, read-out: 6 Hz (14 mA) ED50", "value": 72.4, "unit": "mg/kg"}, {"measurement": "Avg. Score", "setting": "[6]; 35 mg/kg", "value": 4.75}, {"measurement": "N/F (animals active over number tested)", "setting": "[6]; 35 mg/kg", "value": "1/8"}, {"measurement": "Avg. Score", "setting": "[6]; 72 mg/kg", "value": 3.125}, {"measurement": "N/F (animals active over number tested)", "setting": "[6]; 72 mg/kg", "value": "5/8"}, {"measurement": "Avg. Score", "setting": "[6]; 90 mg/kg", "value": 2.75}, {"measurement": "N/F (animals active over number tested)", "setting": "[6]; 90 mg/kg", "value": "5/8"}, {"measurement": "Avg. Score", "setting": "[6]; 120 mg/kg", "value": 0.375}, {"measurement": "N/F (animals active over number tested)", "setting": "[6]; 120 mg/kg", "value": "8/8"}, {"measurement": "ED50", "setting": "[6]; Mus musculus", "value": 64.1, "unit": "mg/kg"}, {"measurement": "TD50", "setting": "[7]", "value": "> 500", "unit": "mg/kg"}, {"measurement": "TOX N/F (animals toxic over number tested)", "setting": "rats; 0.25 h", "value": "0/4"}, {"measurement": "TOX N/F (animals toxic over number tested)", "setting": "rats; 0.5 h", "value": "0/4"}, {"measurement": "TOX N/F (animals toxic over number tested)", "setting": "rats; 1.0 h", "value": "0/4"}, {"measurement": "TOX N/F (animals toxic over number tested)", "setting": "rats; 2.0 h", "value": "0/4"}, {"measurement": "TOX N/F (animals toxic over number tested)", "setting": "rats; 4.0 h", "value": "0/4"}, {"measurement": "TOX N/F (animals toxic over number tested)", "setting": "mice; 0.5 h", "value": "0/4"}, {"measurement": "TOX N/F (animals toxic over number tested)", "setting": "mice; 1 h", "value": "0/4"}, {"measurement": "TOX N/F (animals toxic over number tested)", "setting": "mice; 2 h", "value": "0/4"}, {"measurement": "TOX N/F (animals toxic over number tested)", "setting": "mice; 4 h", "value": "0/4"}, {"measurement": "TD50", "setting": "in vivo", "value": 383, "unit": "mg/kg"}]}
